Reference: patent US9982005B2, “Macrolides and methods of their preparation and use” (President and Fellows of Harvard College, priority 2013, dated 2018)
Converted amounts (≈) assume the structure as drawn. Read-outs that look alike come from different tables or passages of the source.

Tests used:
Assay type in all cases: cell-based
[1] = system: S. aureus (Newman, clinical isolate); assay: MIC, S. aureus Newman; settings: Staphylococcus aureus
Text: (§1) We have collected MIC data for a total of 50 novel macrolides that this platform has produced against over 21 unique strains of B. subtilis, E. coli, S. aureus, S. pneumoniae, and H. influenzae, including several multidrug-resistant strains, with a special focus on macrolide resistant mechanisms (vide supra). Azithromycin was included as a control macrolide. CLSI standard procedures for broth dilution MIC determination were used. […] These genotypes can be constitutive or inducible. The finding that C4-epi (unnatural) isomers of the “azaketolide” macrolide class have enhanced activities relative to C4 natural isomers is very exciting.

E. coli (MC4100) = assay: MIC, E. coli MC4100
Text: as §1

E. coli strains = assay: MIC against E. coli strains (Table M7); settings: Escherichia coli, ATCC25922, E. coli ATCC 25922
How it was run: (§2)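 Following CLSI guidelines, each compound was serially diluted in broth against the bacterial strain and the MIC recorded. Azithromycin was included in parallel as a comparator macrolide.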

S. aureus strains = assay: MIC against S. aureus strains (Table M7); settings: Staphylococcus aureus
How it was run: as §2

S. pneumoniae strains = assay: MIC against S. pneumoniae strains (Tables M7, M8); settings: Streptococcus pneumoniae
Text: CLSI standard procedures for broth dilution MIC determination were used. […] These genotypes can be constitutive or inducible.

E. faecalis strains = assay: MIC against E. faecalis strains (Table M8); settings: Enterococcus faecalis, E. faecalis 29212
A. baumannii strains = assay: MIC against A. baumannii strains (Table M8); settings: Acinetobacter baumannii, BAA747, A. baumannii BAA747-1
K. pneumoniae strains = assay: MIC against K. pneumoniae strains (Table M8); settings: Klebsiella pneumoniae, K. pneumoniae 10031
H. influenzae strains = assay: MIC against H. influenzae strains (Table M8); settings: Haemophilus influenzae
How it was run: as §2

[2] = S. aureus (Neuman, clinical isolate), round 2
[3] = Escherichia coli, round 2, read-out: MIC
[4] = ATCC29213, S. aureus ATCC 29213, read-out: MIC S. aureus (ATCC 29213)
[5] = S. aureus 506, read-out: MIC S. aureus (506)
[6] = S. aureus 1708, read-out: MIC S. aureus (1708)
[7] = USA300, S. aureus USA300, read-out: MIC S. aureus (USA300)
[8] = S. pneumoniae 160, read-out: MIC S. pneumonae (160)
[9] = S. pneumoniae 1509, read-out: MIC S. pneumoniae (1509)
[10] = S. pneumoniae 1533, read-out: MIC S. pneumoniae (1533)
[11] = S. pneumoniae 1537, read-out: MIC S. pneumoniae (1537)
[12] = S. pneumoniae 49619, read-out: MIC S. pneumoniae (49619)
[13] = H. influenzae 49247, read-out: MIC H. influenzae (49247)
[14] = H. influenzae 49766, read-out: MIC H. influenzae (49766)
[15] = S. aureus (Newman, clinical isolate), round 1
[16] = Escherichia coli, round 1, read-out: MIC

Compound	MIC [1, 2]	MIC (E. coli (MC4100); [3])	MIC (E. coli strains)	MIC (S. aureus strains; [4])	MIC (S. aureus strains; [5])	MIC (S. aureus strains; [6])	MIC (S. aureus strains; [7])	MIC (S. pneumoniae strains; [8])	MIC (S. pneumoniae strains; [9])	MIC (S. pneumoniae strains; [10])	MIC (S. pneumoniae strains; [11])	MIC (S. pneumoniae strains; [12])	MIC (E. faecalis strains)	MIC (A. baumannii strains)	MIC (K. pneumoniae strains)	MIC (H. influenzae strains; [13])	MIC (H. influenzae strains; [14])	MIC [1, 15]	MIC (E. coli (MC4100); [16])	also measured
CC[C@H]1OC(=O)[C@H](C)C(=O)[C@H](C)[C@@H](O[C@@H]2OC(C)CC(N(C)C)C2O)[C@](C)(OC)CCN[C@H](C)[C@H]2N(CCCCn3cc(-c4cccc(N)c4)nn3)C(=O)O[C@]12C (stereo partly drawn) [FSM-30622]	> 32 µg/mL	> 32 µg/mL	> 32 µg/mL	> 32 µg/mL	> 32 µg/mL	> 32 µg/mL	> 32 µg/mL	> 32 µg/mL	> 32 µg/mL	> 32 µg/mL	> 32 µg/mL	> 32 µg/mL	> 32 µg/mL	> 32 µg/mL	> 32 µg/mL	> 32 µg/mL	> 32 µg/mL	–	–	–
CC[C@H]1OC(=O)[C@H](C)C(=O)[C@H](C)[C@@H](O[C@@H]2OC(C)CC(N(C)C)C2O)/C(C)=C/CN(C)[C@H](C)[C@H]2N(CCCCn3cc(-c4cccc(N)c4)nn3)C(=O)O[C@]12C (stereo partly drawn) [FSM-30633]	> 32 µg/mL	> 32 µg/mL	> 32 µg/mL	> 32 µg/mL	> 32 µg/mL	> 32 µg/mL	> 32 µg/mL	> 32 µg/mL	> 32 µg/mL	> 32 µg/mL	> 32 µg/mL	> 32 µg/mL	> 32 µg/mL	> 32 µg/mL	> 32 µg/mL	32 µg/mL (≈ 40.9 µM)	> 32 µg/mL	–	–	–
CC[C@H]1OC(=O)CC(=O)[C@H](C)[C@@H](O[C@@H]2OC(C)CC(N(C)C)C2O)[C@](C)(OC)C[C@@H](C)CN[C@H](C)[C@H]2N(CCCCn3cc(-c4cccc(N)c4)nn3)C(=O)O[C@]12C (stereo partly drawn) [FSM-56133]	4 µg/mL (≈ 4.91 µM)	8 µg/mL (≈ 9.83 µM)	8 µg/mL (≈ 9.83 µM)	4 µg/mL (≈ 4.91 µM)	> 32 µg/mL	4 µg/mL (≈ 4.91 µM)	8 µg/mL (≈ 9.83 µM)	0.5 µg/mL (≈ 0.614 µM)	> 32 µg/mL	> 32 µg/mL	> 32 µg/mL	1 µg/mL (≈ 1.23 µM)	0.5 µg/mL (≈ 0.614 µM)	32 µg/mL (≈ 39.3 µM)	2 µg/mL (≈ 2.46 µM)	1 µg/mL (≈ 1.23 µM)	4 µg/mL (≈ 4.91 µM)	–	–	–
CC[C@H]1OC(=O)[C@H](C)C(=O)[C@H](C)[C@@H](O[C@@H]2OC(C)CC(N(C)C)C2O)[C@](C)(OC)C[C@@H](C)CN[C@H](C)[C@H]2N(CCCCCn3cc(-c4cccc(N)c4)nn3)C(=O)O[C@]12C (stereo partly drawn) [FSM-40349]	–	–	8 µg/mL (≈ 9.5 µM)	1 µg/mL (≈ 1.19 µM)	> 32 µg/mL	1 µg/mL (≈ 1.19 µM)	2 µg/mL (≈ 2.38 µM)	0.125 µg/mL (≈ 0.148 µM)	2 µg/mL (≈ 2.38 µM)	> 32 µg/mL	> 32 µg/mL	≤ 0.0625 µg/mL	0.125 µg/mL (≈ 0.148 µM)	32 µg/mL (≈ 38 µM)	2 µg/mL (≈ 2.38 µM)	0.5 µg/mL (≈ 0.594 µM)	2 µg/mL (≈ 2.38 µM)	2 µg/mL (≈ 2.38 µM)	16 µg/mL (≈ 19 µM)	–
CC[C@H]1OC(=O)[C@H](C)C(=O)[C@H](C)[C@@H](O[C@@H]2OC(C)CC(N(C)C)C2O)[C@](C)(OC)C[C@@H](C)CN[C@H](C)[C@H]2N(CCCn3cc(-c4cccc(N)c4)nn3)C(=O)O[C@]12C (stereo partly drawn) [FSM-40347]	–	–	8 µg/mL (≈ 9.83 µM)	4 µg/mL (≈ 4.91 µM)	> 32 µg/mL	4 µg/mL (≈ 4.91 µM)	4 µg/mL (≈ 4.91 µM)	0.125 µg/mL (≈ 0.154 µM)	32 µg/mL (≈ 39.3 µM)	> 32 µg/mL	> 32 µg/mL	0.25 µg/mL (≈ 0.307 µM)	0.25 µg/mL (≈ 0.307 µM)	8 µg/mL (≈ 9.83 µM)	2 µg/mL (≈ 2.46 µM)	0.5 µg/mL (≈ 0.614 µM)	4 µg/mL (≈ 4.91 µM)	2 µg/mL (≈ 2.46 µM)	8 µg/mL (≈ 9.83 µM)	–
CC[C@H]1OC(=O)[C@H](C)C(=O)[C@H](C)[C@@H](O[C@@H]2OC(C)CC(N(C)C)C2O)[C@](C)(OC/C=C/c2cnc3ccccc3c2)C[C@@H](C)CN[C@H](C)[C@H]2NC(=O)O[C@@]21C (stereo partly drawn) [FSM-20919]	0.5 µg/mL (≈ 0.652 µM)	–	4 µg/mL (≈ 5.22 µM)	0.25 µg/mL (≈ 0.326 µM)	> 32 µg/mL	0.25 µg/mL (≈ 0.326 µM)	0.5 µg/mL (≈ 0.652 µM)	≤ 0.0625 µg/mL	0.5 µg/mL (≈ 0.652 µM)	32 µg/mL (≈ 41.7 µM)	32 µg/mL (≈ 41.7 µM)	≤ 0.0625 µg/mL	0.5 µg/mL (≈ 0.652 µM)	16 µg/mL (≈ 20.9 µM)	16 µg/mL (≈ 20.9 µM)	1 µg/mL (≈ 1.3 µM)	4 µg/mL (≈ 5.22 µM)	0.25 µg/mL (≈ 0.326 µM)	2 µg/mL (≈ 2.61 µM)	MIC (E. coli (MC4100); round 2): 2 µg/mL (≈ 2.61 µM); MIC (S. aureus strains; S. aureus 183, read-out: MIC S. aureus (183)): > 32 µg/mL
